In US10202389B2, “Pyrazolopyrimidinyl inhibitors of ubiquitin-activating enzyme” (Millennium Pharmaceuticals, Inc., priority 2012, dated 2019):

Target: recombinant human UAE (Homo sapiens (Human), UniProt P22314)
Assay: Ubiquitin Activating Enzyme (UAE) HTRF Assay
Details: read-out: % inhibition @0.111 μM
Procedure: After incubation for 120 minutes, quantification of the FRET is performed on the Pherostar (BMG).
For compounds whose values are marked with an asterisk (*), mouse UAE was used. For all other compounds, human UAE was used.

Sequence of recombinant human UAE (P22314 whole entry): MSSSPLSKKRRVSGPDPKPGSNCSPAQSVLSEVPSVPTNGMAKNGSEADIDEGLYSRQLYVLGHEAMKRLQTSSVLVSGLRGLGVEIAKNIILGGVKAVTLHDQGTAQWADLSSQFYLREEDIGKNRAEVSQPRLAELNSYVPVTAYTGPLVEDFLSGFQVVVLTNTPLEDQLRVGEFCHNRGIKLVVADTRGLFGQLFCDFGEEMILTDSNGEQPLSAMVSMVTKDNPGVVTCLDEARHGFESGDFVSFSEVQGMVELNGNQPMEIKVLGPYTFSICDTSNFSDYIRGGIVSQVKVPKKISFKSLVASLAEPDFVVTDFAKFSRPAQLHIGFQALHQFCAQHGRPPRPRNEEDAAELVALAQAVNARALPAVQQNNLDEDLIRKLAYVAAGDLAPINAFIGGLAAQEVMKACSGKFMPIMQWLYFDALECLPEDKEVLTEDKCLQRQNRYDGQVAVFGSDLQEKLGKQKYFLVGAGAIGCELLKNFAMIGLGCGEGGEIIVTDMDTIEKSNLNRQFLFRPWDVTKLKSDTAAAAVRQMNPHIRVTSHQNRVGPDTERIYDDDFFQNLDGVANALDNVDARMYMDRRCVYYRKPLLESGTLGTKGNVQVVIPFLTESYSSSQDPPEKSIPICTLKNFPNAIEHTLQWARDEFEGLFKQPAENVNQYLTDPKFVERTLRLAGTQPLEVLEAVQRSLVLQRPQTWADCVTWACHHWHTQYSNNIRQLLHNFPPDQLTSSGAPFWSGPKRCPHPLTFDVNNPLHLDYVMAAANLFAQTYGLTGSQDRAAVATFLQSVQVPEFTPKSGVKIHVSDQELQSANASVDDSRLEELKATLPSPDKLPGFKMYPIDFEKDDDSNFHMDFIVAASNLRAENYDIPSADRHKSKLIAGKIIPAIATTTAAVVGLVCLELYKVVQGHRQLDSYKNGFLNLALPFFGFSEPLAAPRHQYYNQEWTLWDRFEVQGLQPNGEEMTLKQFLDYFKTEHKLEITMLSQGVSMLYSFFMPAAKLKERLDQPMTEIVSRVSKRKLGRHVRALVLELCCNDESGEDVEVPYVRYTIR

inhibition at 0.111 µM [%]	SMILES
100	NS(=O)(=O)OC[C@H]1C[C@@H](Nc2ccnc3cc(-c4cccc5c4oc4ccccc45)nn23)[C@H](O)[C@@H]1O (relative stereo) [Compound I-010, (rac)-((1R,2R,3S,4R)-4-(2-(dibenzo[b,d]furan-4-yl)pyrazolo[1,5-a]pyrimidin-7-ylamino)-2,3-dihydroxycyclopentyl)methyl rel-sulfamate]
100	NS(=O)(=O)OC[C@H]1C[C@@H](Nc2ccnc3cc(-c4cccc(C5CCCC5)c4)nn23)[C@H](O)[C@@H]1O (relative stereo) [Compound I-048, (rac)-[(1R,2R,3S,4R)-4-{[2-(3-cyclopentylphenyl)pyrazolo[1,5-a]pyrimidin-7-yl]amino}-2,3-dihydroxycyclopentyl]methyl rel-sulfamate]
100	NS(=O)(=O)OC[C@H]1C[C@@H](Nc2ccnc3cc(-c4ccc5c(c4)oc4ccccc45)nn23)[C@H](O)[C@@H]1O (relative stereo) [Compound I-093, (rac)-((1R,2R,3S,4R)-4-(2-(dibenzo[b,d]furan-3-yl)pyrazolo[1,5-a]pyrimidin-7-ylamino)-2,3-dihydroxycyclopentyl)methyl rel-sulfamate]
100	NS(=O)(=O)OC[C@H]1C[C@@H](Nc2ccnc3cc(-c4csc5ccc(F)cc45)nn23)[C@H](O)[C@@H]1O (relative stereo) [Compound I-081, (rac)-((1R,2R,3S,4R)-4-(2-(5-fluorobenzo[b]thiophen-3-yl)pyrazolo[1,5-a]pyrimidin-7-ylamino)-2,3-dihydroxycyclopentyl)methyl rel-sulfamate]
100	NS(=O)(=O)OC[C@H]1C[C@@H](Nc2ccnc3cc(-c4cc(C(F)(F)F)ccc4F)nn23)[C@H](O)[C@@H]1O (relative stereo) [Compound I-029, (rac)-((1R,2R,3S,4R)-4-((2-(2-Fluoro-5-(trifluoromethyl)phenyl)pyrazolo[1,5-a]pyrimidin-7-yl)amino)-2,3-dihydroxycyclopentyl)methyl rel-sulfamate]
99	NS(=O)(=O)OC[C@H]1C[C@@H](Nc2ccnc3cc(-c4cccc(SC(F)(F)F)c4)nn23)[C@H](O)[C@@H]1O [Compound I-101, (s.e.)-((1R,2R,3S,4R)-2,3-dihydroxy-4-(2-(3-(trifluoromethylthio)phenyl)pyrazolo[1,5-a]pyrimidin-7-ylamino)cyclopentyl)methyl sulfamate]
100	NS(=O)(=O)OC[C@H]1C[C@@H](Nc2ccnc3cc(-c4c(OC(F)F)ccc5ccccc45)nn23)[C@H](O)[C@@H]1O [Compound I-110, (s.e.)-((1R,2R,3S,4R)-4-(2-(2-(difluoromethoxy)naphthalen-1-yl)pyrazolo[1,5-a]pyrimidin-7-ylamino)-2,3-dihydroxycyclopentyl)methyl sulfamate]
75	NS(=O)(=O)OC[C@H]1C[C@@H](Nc2ccnc3cc(-c4ccccc4SC(F)(F)F)nn23)[C@H](O)[C@@H]1O (relative stereo) [Compound I-079, (rac)-((1R,2R,3S,4R)-2,3-dihydroxy-4-(2-(2-(trifluoromethylthio)phenyl)pyrazolo[1,5-a]pyrimidin-7-ylamino)cyclopentyl)methyl rel-sulfamate]
100	CCc1ccc2scc(-c3cc4nccc(N[C@@H]5C[C@H](COS(N)(=O)=O)[C@@H](O)[C@H]5O)n4n3)c2c1 (relative stereo) [Compound I-094, (rac)-((1R,2R,3S,4R)-4-(2-(5-ethylbenzo[b]thiophen-3-yl)pyrazolo[1,5-a]pyrimidin-7-ylamino)-2,3-dihydroxycyclopentyl)methyl rel-sulfamate]
27	Cc1cnc2cc(-c3ccccc3)nn2c1N[C@@H]1C[C@H](COS(N)(=O)=O)[C@@H](O)[C@H]1O (relative stereo) [Compound I-089, (rac)-{(1R,2R,3S,4R)-2,3-dihydroxy-4-[(6-methyl-2-phenylpyrazolo[1,5-a]pyrimidin-7-yl)amino]cyclopentyl}methyl rel-sulfamate]
97	Cn1cc(-c2cccc(-c3cc4nccc(N[C@@H]5C[C@H](COS(N)(=O)=O)[C@@H](O)[C@H]5O)n4n3)c2)cn1 (relative stereo) [Compound I-122, (rac)-[(1R,2R,3S,4R)-2,3-dihydroxy-4-({2-[3-(1-methyl-1H-pyrazol-4-yl)phenyl]pyrazolo[1,5-a]pyrimidin-7-yl}amino)cyclopentyl]methyl rel-sulfamate]
100	NS(=O)(=O)OC[C@H]1C[C@@H](Nc2ccnc3cc(-c4cccc(N5CCCC5=O)c4)nn23)[C@H](O)[C@@H]1O (relative stereo) [Compound I-087, (rac)-((1R,2R,3S,4R)-2,3-dihydroxy-4-(2-(3-(2-oxopyrrolidin-1-yl)phenyl)pyrazolo[1,5-a]pyrimidin-7-ylamino)cyclopentyl)methyl rel-sulfamate]
100	NS(=O)(=O)OC[C@H]1C[C@@H](Nc2ccnc3cc(-c4cccc(N5CCCC5)c4)nn23)[C@H](O)[C@@H]1O (relative stereo) [Compound I-046, (rac)-((1R,2R,3S,4R)-2,3-dihydroxy-4-(2-(3-(pyrrolidin-1-yl)phenyl)pyrazolo[1,5-a]pyrimidin-7-ylamino)cyclopentyl)methyl rel-sulfamate]
100	NS(=O)(=O)OC[C@H]1C[C@@H](Nc2ccnc3cc(-c4coc5ccccc45)nn23)[C@H](O)[C@@H]1O (relative stereo) [Compound I-049, (rac)-((1R,2R,3S,4R)-4-(2-(benzofuran-3-yl)pyrazolo[1,5-a]pyrimidin-7-ylamino)-2,3-dihydroxycyclopentyl)methyl rel-sulfamate]
100	CC(C)(C)c1cccc(-c2cc3nccc(N[C@@H]4C[C@H](COS(N)(=O)=O)[C@@H](O)[C@H]4O)n3n2)n1 (relative stereo) [Compound I-052, (rac)-((1R,2R,3S,4R)-4-(2-(6-tert-butylpyridin-2-yl)pyrazolo[1,5-a]pyrimidin-7-ylamino)-2,3-dihydroxycyclopentyl)methyl rel-sulfamate]
100	NS(=O)(=O)OC[C@H]1C[C@@H](Nc2ccnc3cc(-c4cccc5cc(C(=O)O)ccc45)nn23)[C@H](O)[C@@H]1O (relative stereo) [Compound I-099, (rac)-rel-5-[7-({(1R,2S,3R,4R)-2,3-dihydroxy-4-[(sulfamoyloxy)methyl]cyclopentyl}amino)pyrazolo[1,5-a]pyrimidin-2-yl]-2-naphthoic acid]
100	Cc1sc(-c2ccccc2)nc1-c1cc2nccc(N[C@@H]3C[C@H](COS(N)(=O)=O)[C@@H](O)[C@H]3O)n2n1 (relative stereo) [Compound I-038, (rac)-[(1R,2R,3S,4R)-2,3-dihydroxy-4-{[2-(5-methyl-2-phenyl-1,3-thiazol-4-yl)pyrazolo[1,5-a]pyrimidin-7-yl]amino}cyclopentyl]methyl rel-sulfamate]
28	NS(=O)(=O)OC[C@H]1C[C@@H](Nc2cc(Cl)nc3cc(-c4ccc(Br)cc4)nn23)[C@H](O)[C@@H]1O (relative stereo) [Compound I-008, (rac)-((1R,2R,3S,4R)-4-(2-(4-bromophenyl)-5-chloropyrazolo[1,5-a]pyrimidin-7-ylamino)-2,3-dihydroxycyclopentyl)methyl rel-sulfamate]
98	NS(=O)(=O)OC[C@H]1C[C@@H](Nc2ccnc3cc(-c4ccc5[nH]ccc5c4)nn23)[C@H](O)[C@@H]1O (relative stereo) [Compound I-074, (rac)-[(1R,2R,3S,4R)-2,3-dihydroxy-4-{[2-(1H-indol-5-yl)pyrazolo[1,5-a]pyrimidin-7-yl]amino}cyclopentyl]methyl rel-sulfamate]
99	NS(=O)(=O)OC[C@H]1C[C@@H](Nc2ccnc3cc(-c4cc(C(F)(F)F)ccc4Cl)nn23)[C@H](O)[C@@H]1O (relative stereo) [Compound I-030, (rac)-((1R,2R,3S,4R)-4-((2-(2-Chloro-5-(trifluoromethyl)phenyl)pyrazolo[1,5-a]pyrimidin-7-yl)amino)-2,3-dihydroxycyclopentyl)methyl rel-sulfamate]
100	CC1(C)COc2ccc(-c3cc4nccc(N[C@@H]5C[C@H](COS(N)(=O)=O)[C@@H](O)[C@H]5O)n4n3)cc21 (relative stereo) [Compound I-026, (rac)-((1R,2R,3S,4R)-4-(2-(3,3-dimethyl-2,3-dihydrobenzofuran-5-yl)pyrazolo[1,5-a]pyrimidin-7-ylamino)-2,3-dihydroxycyclopentyl)methyl rel-sulfamate]
100	NS(=O)(=O)OC[C@H]1C[C@@H](Nc2ccnc3cc(-c4cccc(SCC5CC5)c4)nn23)[C@H](O)[C@@H]1O (relative stereo) [Compound I-076, (rac)-((1R,2R,3S,4R)-4-(2-(3-(cyclopropylmethylthio)phenyl)pyrazolo[1,5-a]pyrimidin-7-ylamino)-2,3-dihydroxycyclopentyl)methyl rel-sulfamate]
100	NS(=O)(=O)OC[C@H]1C[C@@H](Nc2ccnc3cc(-c4cc(Cl)ccc4OC(F)(F)F)nn23)[C@H](O)[C@@H]1O (relative stereo) [Compound I-057, (rac)-((1R,2R,3S,4R)-4-(2-(5-chloro-2-(trifluoromethoxy)phenyl)pyrazolo[1,5-a]pyrimidin-7-ylamino)-2,3-dihydroxycyclopentyl)methyl rel-sulfamate]
23	NS(=O)(=O)OC[C@H]1C[C@@H](Nc2cc(Cl)nc3cc(-c4ccccc4)nn23)[C@H](O)[C@@H]1O (relative stereo) [Compound I-006, (rac)-{(1R,2R,3S,4R)-4-[(5-chloro-2-phenylpyrazolo[1,5-a]pyrimidin-7-yl)amino]-2,3-dihydroxycyclopentyl}methyl rel-sulfamate]
100	COC(=O)c1ccc2c(-c3cc4nccc(N[C@@H]5C[C@H](COS(N)(=O)=O)[C@@H](O)[C@H]5O)n4n3)cccc2c1 (relative stereo) [Compound I-096, (rac)-methyl rel-5-[7-({(1R,2S,3R,4R)-2,3-dihydroxy-4-[(sulfamoyloxy)methyl]cyclopentyl}amino)pyrazolo[1,5-a]pyrimidin-2-yl]-2-naphthoate]
